Measurements from patent US20230107642A1 (Erasca, Inc., priority 2020, published 2023).

These molecules were tested against T1, K-Ras G12C (Homo sapiens, UniProt P01116, G12C) (assay: CAF assay (% CAF; method in Example 7, not in this part)). Details: 10 uM compound, 1 h incubation.
T1 construct: This protein contained 188 amino acids in total, including an N-terminal 6-Histidine tag; made in house; host or cells: E. coli BL21
Format: binding

% CAF @ 10 uM, 1h	SMILES
63.5%	C=CC(=O)N1C[C@H](C)N(c2nc(=O)n3c4c(c(-c5ccc(F)cc5F)c(Cl)cc24)SC[C@@H]3CC2CCN(CC(F)F)CC2)C[C@H]1C [Example 477, (3S)-7-((2S,5R)-4-acryloyl-2,5-dimethylpiperazin-1-yl)-9-chloro-3-((1-(2,2-difluoroethyl)piperidin-4-yl)methyl)-10-(2,4-difluorophenyl)-2H-[1,4]thiazino[2,3,4-ij]quinazolin-5(3H)-one]
82.2%	C=CC(=O)N1C[C@H](C)N(c2nc(=O)n3c4c(c(-c5cc(F)c(F)cc5F)c(Cl)cc24)SC[C@@H]3CN2CCn3c(nnc3C(F)(F)F)C2)C[C@H]1C [Example 459, (3S)-7-((2S,5R)-4-acryloyl-2,5-dimethylpiperazin-1-yl)-9-chloro-3-((3-(trifluoromethyl)-5,6-dihydro-[1,2,4]triazolo[4,3-a]pyrazin-7(8H)-yl)methyl)-10-(2,4,5-trifluorophenyl)-2H-[1,4]thiazino[2,3,4-ij]quinazolin-5(3H)-one]
72.5%	C=CC(=O)N1CCN(c2nc(=O)n3c4c(c(-c5ccc(F)cc5F)c(C(F)(F)F)cc24)S(=O)(=O)C[C@@H]3COC)[C@@H](C)C1 [Example 436, (3S)-7-((S)-4-acryloyl-2-methylpiperazin-1-yl)-10-(2,4-difluorophenyl)-3-(methoxymethyl)-9-(trifluoromethyl)-2H-[1,4]thiazino[2,3,4-ij]quinazolin-5(3H)-one 1,1-dioxide]
86%	C=CC(=O)N1CCN(c2nc(=O)n3c4c(c(-c5ccc(F)cc5F)c(Cl)cc24)SC[C@H](OC)C3)CC1 [Example 525, (3R)-8-(4-acryloylpiperazin-1-yl)-10-chloro-11-(2,4-difluorophenyl)-3-methoxy-3,4-dihydro-2H,6H-[1,4]thiazepino[2,3,4-ij]quinazolin-6-one]
85.4%	C=CC(=O)N1CCN(c2nc(=O)n3c4c(c(-c5ccc(F)cc5F)c(Cl)cc24)SC[C@@H]3CC2CCN(C3COC3)CC2)[C@@H](C)C1 [Example 415, (3S)-7-((S)-4-acryloyl-2-methylpiperazin-1-yl)-9-chloro-10-(2,4-difluorophenyl)-3-((1-(oxetan-3-yl)piperidin-4-yl)methyl)-2H-[1,4]thiazino[2,3,4-ij]quinazolin-5(3H)-one]
87.8%	C=CC(=O)N1CCN(c2nc(=O)n3c4c(c(-c5ccc(F)cc5)c(Cl)cc24)SC[C@@H]3CN2CCC3(CC2)COC3)[C@@H](C)C1 [Example 462, (S)-3-(2-oxa-7-azaspiro[3.5]nonan-7-ylmethyl)-7-((S)-4-acryloyl-2-methylpiperazin-1-yl)-9-chloro-10-(4-fluorophenyl)-2H-[1,4]thiazino[2,3,4-ij]quinazolin-5(3H)-one]
96.9%	C=CC(=O)N1CCN(c2nc(=O)n3c4c(c(-c5ccc(F)cc5F)c(C(F)(F)F)cc24)SC[C@@H]3COC)CC1 (atropisomer, axis not shown) [Example 579, (3S,10S)-7-(4-acryloylpiperazin-1-yl)-10-(2,4-difluorophenyl)-3-(methoxymethyl)-9-(trifluoromethyl)-2,3-dihydro-5H-[1,4]thiazino[2,3,4-ij]quinazolin-5-one]
96%	C=CC(=O)N1[C@H](C)CN(c2nc(=O)n3c4c(c(-c5ccc(F)cc5F)c(C(F)(F)F)cc24)SC[C@@H](OC)C3)C[C@@H]1C [Example 503, (3S)-8-((3S,5R)-4-acryloyl-3,5-dimethylpiperazin-1-yl)-11-(2,4-difluorophenyl)-3-methoxy-10-(trifluoromethyl)-3,4-dihydro-2H,6H-[1,4]thiazepino[2,3,4-ij]quinazolin-6-one]
95%	C=CC(=O)N1[C@H](C)CN(c2nc(=O)n3c4c(c(-c5ccc(F)cc5F)c(Cl)cc24)SC[C@@H](OC)C3)C[C@@H]1C [Example 505, (3S)-8-((3S,5R)-4-acryloyl-3,5-dimethylpiperazin-1-yl)-10-chloro-11-(2,4-difluorophenyl)-3-methoxy-3,4-dihydro-2H,6H-[1,4]thiazepino[2,3,4-ij]quinazolin-6-one]
51.6%	C=CC(=O)N1C[C@H](C)N(c2nc(=O)n3c4c(c(-c5cc(Cl)c(F)cc5F)c(Cl)cc24)SC[C@@H]3CN2CCC3(CC2)COC3)C[C@H]1C [Example 449, (3S)-3-(2-oxa-7-azaspiro[3.5]nonan-7-ylmethyl)-7-((2S,5R)-4-acryloyl-2,5-dimethylpiperazin-1-yl)-9-chloro-10-(5-chloro-2,4-difluorophenyl)-2H-[1,4]thiazino[2,3,4-ij]quinazolin-5(3H)-one]

SMILES	% CAF @ 10 uM, 1h
CN(C)C/C=C/C(=O)N1C2CC(=O)CC1CN(c1nc(=O)n3c4c(c(-c5ccc(F)cc5F)c(C(F)(F)F)cc14)SCC3)C2 [Example 420, (E)-10-(2,4-difluorophenyl)-7-(9-(4-(dimethylamino)but-2-enoyl)-7-oxo-3,9-diazabicyclo[3.3.1]nonan-3-yl)-9-(trifluoromethyl)-2,3-dihydro-5H-[1,4]thiazino[2,3,4-ij]quinazolin-5-one]	93%

Same assay, conditions: 10 uM, 60 min; Table 2a

% CAF 10 uM @ 60 min	SMILES
70%	C[C@H]1CN(C(=O)/C=C/C(F)(F)F)CCN1c1nc(=O)n2c3c(c(-c4cc(F)cc(Cl)c4)c(Cl)cc13)SCC2 [Example 65]

Same assay, conditions: 10 uM, 1 h; Table 3

% CAF @ 10 uM, 1h	SMILES
91.4%	C=CC(=O)N1C[C@H](C)N(c2nc(=O)n3c4c(c(-c5ccc(F)cc5F)c(Cl)cc24)S(=O)(=O)CC3)C[C@H]1C [Example 184, 7-((2S,5R)-4-acryloyl-2,5-dimethylpiperazin-1-yl)-9-chloro-10-(2,4-difluorophenyl)-2,3-dihydro-5H-[1,4]thiazino[2,3,4-ij]quinazolin-5-one 1,1-dioxide]
3%	C[C@H]1CN(C(=O)/C=C/C(F)(F)F)CCN1c1nc(=O)n2c3c(c(-c4cc(F)cc(Cl)c4)c(Cl)cc13)SCC2 [Example 65]
23.3%	C=CC(=O)N1CCN(c2nc(=O)n3c4c(c(-c5ccc(F)cc5F)c(Cl)cc24)SCC3)[C@@H](CN2CCC2)C1 [Example 169, 7-((S)-4-acryloyl-2-(azetidin-1-ylmethyl)piperazin-1-yl)-9-chloro-10-(2,4-difluorophenyl)-2,3-dihydro-5H-[1,4]thiazino[2,3,4-ij]quinazolin-5-one]
89.4%	C=CC(=O)N1CCN(c2nc(=O)n3c4c(c(-n5ccccc5=O)c(Cl)cc24)SCC3)[C@@H](C)C1 [Example 136, 7-((S)-4-acryloyl-2-methylpiperazin-1-yl)-9-chloro-10-(2-oxopyridin-1(2H)-yl)-2,3-dihydro-5H-[1,4]thiazino[2,3,4-ij]quinazolin-5-one]
93.8%	C=CC(=O)N1C[C@H](C)N(c2nc(=O)n3c4c(c(-c5ccc(F)cc5F)c(Cl)cc24)SCC3)C[C@H]1C [Example 189, 7-((2S,5R)-4-acryloyl-2,5-dimethylpiperazin-1-yl)-9-chloro-10-(2,4-difluorophenyl)-2,3-dihydro-5H-[1,4]thiazino[2,3,4-ij]quinazolin-5-one]
87.8%	C=CC(=O)N1CCN(c2nc(=O)n3c4c(c(-c5cccc6ccncc56)c(Cl)cc24)SCC3)[C@@H](C)C1 [Example 71, 7-((S)-4-acryloyl-2-methylpiperazin-1-yl)-9-chloro-10-(isoquinolin-8-yl)-2,3-dihydro-5H-[1,4]thiazino[2,3,4-ij]quinazolin-5-one]
27.4%	C=CC(=O)N1CCN(c2nc(=O)n3c4c(c(-c5ccc(F)cc5F)c(Cl)cc24)SCC3)CC12CCNC2=O (stereo not shown) [Example 116, 7-(6-acryloyl-1-oxo-2,6,9-triazaspiro[4.5]decan-9-yl)-9-chloro-10-(2,4-difluorophenyl)-2,3-dihydro-5H-[1,4]thiazino[2,3,4-ij]quinazolin-5-one]
86.2%	C[C@H]1CN(C(=O)/C=C/C(F)(F)F)CCN1c1nc(=O)n2c3c(c(-c4ccc(F)cc4F)c(Cl)cc13)SCC2 [Example 112, 9-chloro-10-(2,4-difluorophenyl)-7-((S)-2-methyl-4-((E)-4,4,4-trifluorobut-2-enoyl)piperazin-1-yl)-2,3-dihydro-5H-[1,4]thiazino[2,3,4-ij]quinazolin-5-one]
94.7%	C=CC(=O)N1CCN(c2nc(=O)n3c4c(c(-c5ccc(F)cc5F)c(Cl)cc24)SC[C@@H]3CCCN2C[C@@H]3C[C@H]2CO3)[C@@H](C)C1 [Example 94, (3S)-3-(3-((1S,4S)-2-oxa-5-azabicyclo[2.2.1]heptan-5-yl)propyl)-7-((S)-4-acryloyl-2-methylpiperazin-1-yl)-9-chloro-10-(2,4-difluorophenyl)-2,3-dihydro-5H-[1,4]thiazino[2,3,4-ij]quinazolin-5-one]
92.8%	C=CC(=O)N1CCN(c2nc(=O)n3c4c(c(-c5ccc(F)cc5F)c(CC)cc24)SCC3)[C@@H](C)C1 [Example 114, 7-((S)-4-acryloyl-2-methylpiperazin-1-yl)-10-(2,4-difluorophenyl)-9-ethyl-2,3-dihydro-5H-[1,4]thiazino[2,3,4-ij]quinazolin-5-one]
96%	C=CC(=O)N1CCN(c2nc(=O)n3c4c(c(-c5ccc(F)cc5F)c(Cl)cc24)SCC3)[C@@H](C)C1 [Example 179, (S)-7-((S)-4-acryloyl-2-methylpiperazin-1-yl)-9-chloro-10-(2,4-difluorophenyl)-2,3-dihydro-5H-[1,4]thiazino[2,3,4-ij]quinazolin-5-one]
85.8%	C=CC(=O)N1CCN(c2nc(=O)n3c4c(c(-c5cc(Cl)c(F)cc5F)c(Cl)cc24)SCC3)[C@@H](C)C1 [Example 82, 7-((S)-4-acryloyl-2-methylpiperazin-1-yl)-9-chloro-10-(5-chloro-2,4-difluorophenyl)-2,3-dihydro-5H-[1,4]thiazino[2,3,4-ij]quinazolin-5-one]

Same assay, conditions: 10 μM, 1 h; Table 4

% CAF @ 10 μM, 1 h	SMILES
96.7%	C=CC(=O)N1CCN(c2nc(=O)n3c4c(c(-c5c(F)cc(F)cc5F)c(Cl)cc24)SC[C@@H]3CC2CCN(C)CC2)[C@@H](C)C1 [Example 343, (S)-7-((S)-4-acryloyl-2-methylpiperazin-1-yl)-9-chloro-3-((1-methylpiperidin-4-yl)methyl)-10-(2,4,6-trifluorophenyl)-2H-[1,4]thiazino[2,3,4-ij]quinazolin-5(3H)-one]
